Assay results: US20200254065A1, “LONG-ACTING GLP-2 ANALOGS” (OPKO Biologics Ltd., priority 2019, published 2020)
Marks after values point to notes of the source that are not given here. Square brackets hold non-standard residues; d marks the D form. Ends that are not written are not given here. Peptide text beside a SMILES is read from it. Nle = CCCC[C@H](N)C(=O)O

How the values were obtained:
small intestine = assay: Intestine weight model in rats; format: in vivo, SD rats; conditions: for Avg. small intestine weight (gr) / Small intestine weight increase over vehicle (%): normal SD rats, injected once at 2 mg/kg peptide dose, 6th day; for Small intestine weight increase over vehicle (%): MAL-FMS-V4 compared to Vehicle 2
Procedure: In the pharmacology study, the conjugates were injected subcutaneously twice, on days 1 and 3 at 1 mg/kg (peptide dose) and intestine weight was performed on day 6. In addition to the PEGylated conjugates, GLP-2-Gly2 was injected at the same dose and regimen for comparison. The average of the intestine weight of each group was compared to that of the vehicle group.
In a different study, several of the PEGylated teduglutide were injected as a single dose at 1 mg/kg and the intestine weight performed on day 6.
Pharmacology and pharmacokinetic studies were performed with the most promising GLP-2 variants to evaluate their efficacy and longevity, respectively. The intestine weight model in rats was conducted to evaluate efficacy, by measuring percent increase of the intestine weight of treated animals over the vehicle group. In this study, the peptides were injected twice, on days 1 and 3 at 1 mg/kg and the intestine weight was conducted on day 6.
PEG20-FMS-V6, PEG20-Fmoc-V6 and PEG40-FMS-V6 were injected once at 1 mg/kg dose on day 1, while group D was also injected twice on days 1 & 3 at 1 mg/kg. The intestine weight was performed on day 6.
Three different reversible PEGylated GLP-2 variants using mutated peptide #4 were injected at 2 mg/kg (peptide dose), once every 6 days for 12 days. On the 12th day the intestine was weighted and compared to the control group. PEG30-FMS-V4 was injected at 0.5 mg/kg as well to evaluate the efficacy dose range.
In addition to PEG30-FMS-V4 and PEG30-Fmoc-V4 that have been pharmacology evaluated by small intestinal weight evaluation (As shown in Example 5), four other reversible PEGylated variant 4 (“V4”) conjugates and two reversible linker-V4 conjugates were synthesized. All the above were injected to 6 normal SD rats/group once at 2 mg/kg (peptide dose), while on the 6th day, animals were scarified, and the small intestine was weighted followed by histopathology evaluation. […] Therefore, slices from three areas of the intestine (duodenum, jejunum and ilium) were stained with hematoxylin and eosin and at least 7 Crypts+Villi length/slice were measured. The averaged Villi+Crypt length of each treatment group (n=6) was compared to the vehicle group (negative control) and calculated as percentage increase over vehicle.
Additional studies were conducted to evaluate the efficacy of the V4 peptide and the reversible MAL-FMS-V4. The long acting effect of V4 and the conjugates were evaluated at Day 6 and Day 10 following treatment (Study reference 15203). All test groups (n=9) were injected SC with 2 mg/kg peptide content at Day 1. At Days 6 and 10, animals were sacrificed and the small intestine underwent histopathology evaluation (6 animals for Day 6, 3 animals for Day 10). FIGS. 12 and 13 show the pharmacology effect of different V4 conjugates and Apraglutide and Glepaglutide as measured by the percent increase of small intestine weight and crypts plus villi length over vehicle, respectively.
To further evaluate the pharmacology efficacy of V4 and Cys-FMS-V4, an experiment was performed to test their acute and prolonged effect on the small intestine (Study reference 15205). In addition, V4 and Cys-FMS-V4 were administrated as a single SC injection on Day 1 at 3 different doses (0.5, 2.0 or 8.0 mg/kg peptide content, 6 rats per group) to assess the dose dependence effect. The pharmacological effect on small intestine weight and villi plus crypts length was measured at Days 3, 7 and 14, and the results are presented in FIGS. 15 and 16. […] It should be noted that this acute response was higher for V4 compared to Cys-FMS-V4 at all 3 dose levels.

[1] = test system: intestine epithelium (crypts plus villi); assay: Crypts plus villi length, histopathology of small intestine; format: in vivo, SD rats; conditions: for Percent increase of Crypts plus Villi length over vehicle (FIG. 1): injected once at 2 mg/kg peptide dose, 6th day
Procedure: In addition to PEG30-FMS-V4 and PEG30-Fmoc-V4 that have been pharmacology evaluated by small intestinal weight evaluation (As shown in Example 5), four other reversible PEGylated variant 4 (“V4”) conjugates and two reversible linker-V4 conjugates were synthesized. All the above were injected to 6 normal SD rats/group once at 2 mg/kg (peptide dose), while on the 6th day, animals were scarified, and the small intestine was weighted followed by histopathology evaluation. […] Therefore, slices from three areas of the intestine (duodenum, jejunum and ilium) were stained with hematoxylin and eosin and at least 7 Crypts+Villi length/slice were measured. The averaged Villi+Crypt length of each treatment group (n=6) was compared to the vehicle group (negative control) and calculated as percentage increase over vehicle. […]
An additional study to evaluate the efficacy and the longevity of V4 and Cys-FMS-V4 was conducted (Study reference 15204) in which the animals were sacrificed on Days 6 (N=6), 10 (N=4) and 14 (N=4). This experiment measured the pharmacological response compared to the commercially approved SBS treatment drug Gattex. In addition, two new conjugates were tested by conjugating V4 to reduced OSu-linker and Cys-FMS-V4 purified from resin. The animals were injected with a single SC injection at Day 1 with 2 mg/kg peptide content of V4, Cys-FMS-V4, FMS-OSu-V4, Apraglutide and Glepaglutide while Gattex was SC injected daily at 2.5 mg/kg peptide content. […]

[2] = Pharmacokinetics of modified GLP-2 variants in rats; format: in vivo; conditions: rat, serum, peptide dose 15 mg/kg
GLP-2 receptor = biological target: T1, GLP-2 receptor (Homo sapiens, UniProt O95838); assay: GLP-2 receptor Cell Based Assay (CBA); conditions: Table 7
T1 sequence (O95838 1-553): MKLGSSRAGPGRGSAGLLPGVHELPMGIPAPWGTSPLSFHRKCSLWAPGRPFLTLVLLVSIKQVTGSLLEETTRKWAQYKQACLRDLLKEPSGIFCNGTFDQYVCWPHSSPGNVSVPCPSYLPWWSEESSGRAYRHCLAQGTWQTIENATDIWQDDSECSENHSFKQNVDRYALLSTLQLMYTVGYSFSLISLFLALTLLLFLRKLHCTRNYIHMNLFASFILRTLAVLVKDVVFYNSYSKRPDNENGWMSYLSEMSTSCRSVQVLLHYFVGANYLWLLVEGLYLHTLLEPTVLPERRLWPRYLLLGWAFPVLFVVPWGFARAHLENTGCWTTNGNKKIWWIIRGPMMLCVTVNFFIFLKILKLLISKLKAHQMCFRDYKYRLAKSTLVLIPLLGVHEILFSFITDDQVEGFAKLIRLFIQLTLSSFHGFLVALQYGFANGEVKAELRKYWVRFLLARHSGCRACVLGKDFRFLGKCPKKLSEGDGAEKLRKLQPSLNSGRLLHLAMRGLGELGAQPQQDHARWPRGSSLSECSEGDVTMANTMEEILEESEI
Procedure: Evaluation of in vitro binding affinity of the different peptides was assessed by using Cell Based Assay (CBA) in the presence of escalating doses of the different peptides.

[3] = Stability of GLP-2 analogues on incubation at 37° C. (appearance, O.D. reading, RP-HPLC); format: physicochemical; conditions: following 48 h incubation at 37° C.
Procedure: The GLP-2 analogues were tested for stability via appearance, O.D. reading (A.280, and A.325) and RP-HPLC (purity, and peak area) following t=0, 1 day, and 48 h incubation at 37° C.

[4] = 2 mg/kg peptide dose once every 6 days for 12 days, weighed on 12th day

In the case of “PEG30-MeOF-V4 (HGEGSFSDE[Nle]NTILDLLAARDFINWLIQTKITD-NH2; also: PEG30-MeOF conjugate, place not given here)”, the “Avg. small intestine weight (gr)” value (small intestine) is reported as 7.0 gr, the “Small intestine weight increase over vehicle (%)” value (small intestine) is reported as 39.0** % and the “Percent increase of Crypts plus Villi length over vehicle (FIG. 1)” value (shortened to “Percent increase … (FIG. 1)”) [1] is reported as “better effect on the intestine epithelium than the V4 peptide”.
For `CCCC[C@H](NC(=O)[C@H](CCC(=O)O)NC(=O)[C@H](CC(=O)O)NC(=O)[C@H](CO)NC(=O)[C@H](Cc1ccccc1)NC(=O)[C@H](CO)NC(=O)CNC(=O)[C@H](CCC(=O)O)NC(=O)CNC(=O)[C@@H](N)Cc1c[nH]cn1)C(=O)N[C@H](Cc1c[nH]cn1)C(=O)N[C@H](C(=O)N[C@H](C(=O)N[C@@H](CC(C)C)C(=O)N[C@@H](CC(=O)O)C(=O)N[C@@H](CC(N)=O)C(=O)N[C@@H](CC(C)C)C(=O)N[C@@H](C)C(=O)N[C@@H](C)C(=O)N[C@@H](CCCNC(=N)N)C(=O)N[C@@H](CC(=O)O)C(=O)N[C@@H](Cc1ccccc1)C(=O)N[C@H](C(=O)N[C@@H](CC(N)=O)C(=O)N[C@@H](Cc1c[nH]c2ccccc12)C(=O)N[C@@H](CC(C)C)C(=O)N[C@H](C(=O)N[C@@H](CCC(N)=O)C(=O)N[C@H](C(=O)N[C@@H](CCCCN)C(=O)N[C@H](C(=O)N[C@H](C(=O)N[C@@H](CC(=O)O)C(N)=O)[C@@H](C)O)[C@@H](C)CC)[C@@H](C)O)[C@@H](C)CC)[C@@H](C)CC)[C@@H](C)CC)[C@@H](C)O` [Variant 3] (H-HGEGSFSDE[Nle][dH]TILDNLAARDFINWLIQTKITD-NH2), the “Increase of intestine weight over vehicle (%)” value (small intestine; modified peptides, two injections on days 1 & 3 at 1 mg/kg, intestine weight on day 6) was 4%, the half-life [2] was 1.9 h and the “EC50 Ratio to Teduglutide” value (GLP-2 receptor) was 2.5. The Solubility via appearance [3] was “V3: clear” and the “Stability via RP-HPLC main peak” value ([3]; change of main peak) was “V3: −4%”.
In the case of “PEG30-Fmoc-V4 (HGEGSFSDE[Nle]NTILDLLAARDFINWLIQTKITD-NH2; also: PEG30-Fmoc conjugate, place not given here)”, the “Average Intestine weight (gr)” value (small intestine; [4]) is reported as 7.8 gr, the “Increase of intestine weight over vehicle (%)” value (small intestine; [4]) is reported as 29% and the “Avg. small intestine weight (gr)” value (small intestine) is reported as 7.0 gr. The “Small intestine weight increase over vehicle (%)” value (small intestine) was 36.0** % and the “Percent increase … (FIG. 1)” value [1] was “better effect on the intestine epithelium than the V4 peptide”.
For “MAL-FMS-V4 (HGEGSFSDE[Nle]NTILDLLAARDFINWLIQTKITD-NH2; also: MAL-FMS conjugate, place not given here)”, the “Avg. small intestine weight (gr)” value (small intestine) was 7.0 gr, the “Percent increase of Crypts+Villi length over vehicle (FIG. 3)” value ([1]; Study 15201, 0.5 and 2 mg/kg peptide dose once, 6 days after injection) was “dose dependent pharmacology effect on the intestine epithelium” and the “Percent increase … (FIG. 1)” value [1] was “showed the most pronounce effect on the intestine epithelium”.
